This passage reports EC50 results from US9206191B2, “Indazoles for the treatment and prophylaxis of respiratory syncytial virus infection” (Hoffmann-La Roche Inc., priority 2012, dated 2015).

What is called EC50 is the concentration at which the effect is half-maximal.

This assay deals with RSV Long strain. Description: Viral Cytopathic Effect (CPE) Assay. Type of assay: cell-based. The conditions noted are these: human respiratory syncytial virus, 144 h, cell viability after 6 days, Cell Counting kit-8. (In general: Cytopathic effects are the visible damage that an infection or toxin causes in cultured cells.)
With `CS(=O)(=O)c1nn(Cc2nc3cc(Cl)ccc3n2C2CCNC(=O)C2)c2cnccc12` (stereo not shown) [Example 2-4, 4-(5-Chloro-2-{[3-(methylsulfonyl)-1H-pyrazolo[3,4-c]pyridin-1-yl]methyl}-1H-benzimidazol-1-yl)piperidin-2-one], a half-maximal response (EC50) required 7.35 nM.
Compound `CS(=O)(=O)c1nn(Cc2nc3cc(Cl)ccc3n2[C@@H]2CCN(S(C)(=O)=O)C2)c2cnccc12` [Example 6-6, 1-({5-Chloro-1-[(3R)-1-(methylsulfonyl)pyrrolidin-3-yl]-1H-benzimidazol-2-yl}methyl)-3-(methylsulfonyl)-1H-pyrazolo[3,4-c]pyridine] yielded an EC50 of 3 nM.
The result for `CC(C)(O)CCCn1c(Cn2nc(S(C)(=O)=O)c3ccncc32)nc2cc(Cl)ccc21` [Example 2-38, 5-(5-chloro-2-{[3-(methylsulfonyl)-1H-pyrazolo[3,4-c]pyridin-1-yl]methyl}-1H-benzimidazol-1-yl)-2-methylpentan-2-ol] reads 8 nM; that for `CC(C)(O)[C@H]1C[C@H](n2c(Cn3nc(S(C)(=O)=O)c4ccncc43)nc3cc(Cl)ccc32)C1` [Example 2-39, 2-[trans-3-(5-chloro-2-{[3-(methylsulfonyl)-1H-pyrazolo[3,4-c]pyridin-1-yl]methyl}-1H-benzimidazol-1-yl)cyclobutyl]propan-2-ol], 2 nM.
`CS(=O)(=O)c1nn(Cc2nc3cc(Cl)ccc3n2-c2ccc(Cl)nc2)c2ccccc12` [Example 3-5, 1-{[5-Chloro-1-(6-chloropyridin-3-yl)-1H-benzimidazol-2-yl]methyl}-3-(methylsulfonyl)-1H-indazole] registered an EC50 of 18.1 nM.
For `CS(=O)(=O)c1nn(Cc2nc3cc(Cl)ccc3n2C2CCNCC2)c2ccccc12` [Example 2-15, 1-{[5-Chloro-1-(piperidin-4-yl)-1H-benzimidazol-2-yl]methyl}-3-(methylsulfonyl)-1H-indazole], the concentration giving a half-maximal response (EC50) came out at 591 nM.
The result for `CCS(=O)(=O)c1nn(Cc2nc3cc(Cl)ccc3n2CCCS(C)(=O)=O)c2ccccc12` [Example 1-10, 1-({5-Chloro-1-[3-(methylsulfonyl)propyl]-1H-benzimidazol-2-yl}methyl)-3-(ethylsulfonyl)-1H-indazole] reads 37.8 nM.
With `CS(=O)(=O)c1nn(Cc2nc3cc(Cl)ccc3n2C2CNC3(COC3)C2)c2cnccc12` (stereo not shown) [Example 8, 1-{[5-Chloro-1-(2-oxa-5-azaspiro[3.4]oct-7-yl)-1H-benzimidazol-2-yl]methyl}-3-(methanesulfonyl)-1H-pyrazolo[3,4-c]pyridine] the figure was 19.4 nM.
With `CS(=O)(=O)c1nn(Cc2nc3cc(Cl)ccc3n2C2CCC(F)(F)C2)c2ccccc12` (stereo not shown) [Example 2-9, 1-{[5-Chloro-1-(3,3-difluorocyclopentyl)-1H-benzimidazol-2-yl]methyl}-3-(methylsulfonyl)-1H-indazole], the EC50 came to 6.97 nM.
Regarding `CS(=O)(=O)c1nn(Cc2nc3cc(Cl)ccc3n2C2COC2)c2cnccc12` [Example 2-5, 1-{[5-Chloro-1-(oxetan-3-yl)-1H-benzimidazol-2-yl]methyl}-3-(methylsulfonyl)-1H-pyrazolo[3,4-c]pyridine], the EC50 stood at 22.4 nM.
`CS(=O)(=O)c1nn(Cc2nc3cc(Cl)ccc3n2[C@H]2C[C@H](CO)C2)c2cnccc12` [Example 11, [trans-3-(5-chloro-2-{[3-(methylsulfonyl)-1H-pyrazolo[3,4-c]pyridin-1-yl]methyl}-1H-benzimidazol-1-yl)cyclobutyl]methanol]: the EC50 was found to be 3 nM.
As to `CS(=O)(=O)c1nn(Cc2nc3cc(Cl)ccc3n2C2CC3(COC3)C2)c2cnccc12` [Example 2-24, 1-{[5-Chloro-1-(2-oxaspiro[3.3]hept-6-yl)-1H-benzimidazol-2-yl]methyl}-3-(methylsulfonyl)-1H-pyrazolo[3,4-c]pyridine], the EC50 was 8.66 nM.
For the compound `CS(=O)(=O)c1nn(Cc2nc3cc(Cl)ccc3n2C2CCOCC2)c2cnccc12` [Example 2-7, 1-{[5-Chloro-1-(tetrahydro-2H-pyran-4-yl)-1H-benzimidazol-2-yl]methyl}-3-(methylsulfonyl)-1H-pyrazolo[3,4-c]pyridine], the EC50 amounted to 7.72 nM.
